# Molecular target: Factor IXa (Homo sapiens, UniProt P00740)
# Test: Determination of inhibitory activity against Factor IXa (cleavage of fluorescent peptide substrate)
# Type: biochemical
# Conditions: cleavage of fluorescent peptide CH3SO2-D-CHG-Gly-Arg-AFC, release of AFC; read-out: FIXa IC50
# Procedure, shortened: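 Factor IXa activity followed via cleavage of CH3SO2-D-CHG-Gly-Arg-AFC, releasing AFC. Fluorescence read at excitation 405 nm, emission 510 nm.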
# Chain of Factor IXa (P00740 227-461 limits assumed): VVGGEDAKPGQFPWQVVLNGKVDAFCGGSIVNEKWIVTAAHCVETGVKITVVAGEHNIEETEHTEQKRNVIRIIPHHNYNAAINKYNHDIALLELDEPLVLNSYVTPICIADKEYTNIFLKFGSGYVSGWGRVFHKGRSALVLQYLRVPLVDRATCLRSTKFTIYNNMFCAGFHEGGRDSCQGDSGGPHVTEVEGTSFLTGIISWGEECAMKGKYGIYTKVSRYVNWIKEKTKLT
# Chain of Factor IXa (P00740 47-191 partner limits assumed): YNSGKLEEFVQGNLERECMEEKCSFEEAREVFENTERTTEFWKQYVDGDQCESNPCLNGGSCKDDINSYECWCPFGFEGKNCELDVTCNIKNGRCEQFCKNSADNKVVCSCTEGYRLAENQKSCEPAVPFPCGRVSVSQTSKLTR
row,SMILES,IC50 [µM]
1,"C[C@]1([C@@H](O)C(=O)Nc2ccc3c(N)noc3c2)OCCN(c2cccc(OC3CCOCC3)n2)C1=O [Example 108, (R)—N-(3-aminobenzo[d]isoxazol-6-yl)-2-hydroxy-2-((R)-2-methyl-3-oxo-4-(6-((tetrahydro-2H-pyran-4-yl)oxy)pyridin-2-yl)morpholin-2-yl)acetamide]",0.37
2,"Cc1noc(C)c1-c1cccc(N2CCO[C@](C)([C@@H](O)C(=O)Nc3ccc4c(N)noc4c3)C2=O)n1 [Example 116, (R)—N-(3-aminobenzo[d]isoxazol-6-yl)-2-((R)-4-(6-(3,5-dimethylisoxazol-4-yl)pyridin-2-yl)-2-methyl-3-oxomorpholin-2-yl)-2-hydroxyacetamide]",0.0935
3,"C[C@]1([C@@H](O)C(=O)Nc2ccc3c(N)noc3c2)OCCN(c2ccc3ccncc3n2)C1=O [Example 117, (R)—N-(3-aminobenzo[d]isoxazol-6-yl)-2-hydroxy-2-((R)-2-methyl-4-(1,7-naphthyridin-2-yl)-3-oxomorpholin-2-yl)acetamide]",0.544
4,"C[C@](O)(C(=O)Nc1cc(Cl)c2c(N)noc2c1)[C@H]1OCCN(c2ccn(-c3ccncc3)n2)C1=O [Example 119, (R)—N-(3-amino-4-chlorobenzo[d]isoxazol-6-yl)-2-hydroxy-2-((R)-3-oxo-4-(1-(pyridin-4-yl)-1H-pyrazol-3-yl)morpholin-2-yl)propanamide]",0.224
5,"C[C@](O)(C(=O)Nc1cc(Cl)c2c(N)noc2c1)[C@H]1OCCN(c2ccn(-c3ccnc(C(F)(F)F)c3)n2)C1=O [Example 120, (R)—N-(3-amino-4-chlorobenzo[d]isoxazol-6-yl)-2-hydroxy-2-((R)-3-oxo-4-(1-(2-(trifluoromethyl)pyridin-4-yl)-1H-pyrazol-3-yl)morpholin-2-yl)propanamide]",1.05
6,"C[C@](O)(C(=O)Nc1cc(Cl)c2c(N)noc2c1)[C@H]1OCCN(c2nn(-c3ccnc(C(F)(F)F)c3)cc2F)C1=O [Example 121, (R)—N-(3-amino-4-chlorobenzo[d]isoxazol-6-yl)-2-((R)-4-(4-fluoro-1-(2-(trifluoromethyl)pyridin-4-yl)-1H-pyrazol-3-yl)-3-oxomorpholin-2-yl)-2-hydroxypropanamide]",0.193
7,"C[C@](O)(C(=O)Nc1cc(Cl)c2c(N)noc2c1)[C@H]1OCCN(c2ccn(-c3ccnnc3)n2)C1=O [Example 122, (R)—N-(3-amino-4-chlorobenzo[d]isoxazol-6-yl)-2-hydroxy-2-((R)-3-oxo-4-(1-(pyridazin-4-yl)-1H-pyrazol-3-yl)morpholin-2-yl)propanamide]",0.129
8,"C[C@](O)(C(=O)Nc1cc(Cl)c2c(N)noc2c1)[C@H]1OCCN(c2nn(-c3ccnnc3)cc2F)C1=O [Example 123, (R)—N-(3-amino-4-chlorobenzo[d]isoxazol-6-yl)-2-((R)-4-(4-fluoro-1-(pyridazin-4-yl)-1H-pyrazol-3-yl)-3-oxomorpholin-2-yl)-2-hydroxypropanamide]",0.0218
9,"C[C@](O)(C(=O)Nc1cc(Cl)c2c(N)noc2c1)[C@H]1OCCN(c2nn(-c3cnnc(C#N)c3)cc2F)C1=O [Example 124, (R)—N-(3-amino-4-chlorobenzo[d]isoxazol-6-yl)-2-((R)-4-(1-(6-cyanopyridazin-4-yl)-4-fluoro-1H-pyrazol-3-yl)-3-oxomorpholin-2-yl)-2-hydroxypropanamide]",0.158
10,"COc1cc(-n2cc(F)c(N3CCO[C@H]([C@@](C)(O)C(=O)Nc4cc(Cl)c5c(N)noc5c4)C3=O)n2)cnn1 [Example 125, (R)—N-(3-amino-4-chlorobenzo[d]isoxazol-6-yl)-2-((R)-4-(4-fluoro-1-(6-methoxypyridazin-4-yl)-1H-pyrazol-3-yl)-3-oxomorpholin-2-yl)-2-hydroxypropanamide]",0.045
11,"C[C@](O)(C(=O)Nc1cc(Cl)c2c(N)noc2c1)[C@H]1OCCN(c2nn(-c3cnnc(C(F)(F)F)c3)cc2F)C1=O [Example 126, (R)—N-(3-amino-4-chlorobenzo[d]isoxazol-6-yl)-2-((R)-4-(4-fluoro-1-(6-(trifluoromethyl)pyridazin-4-yl)-1H-pyrazol-3-yl)-3-oxomorpholin-2-yl)-2-hydroxypropanamide]",0.0316
12,"C[C@]1([C@@H](O)C(=O)Nc2cc(Cl)c3c(N)noc3c2)OCCN(c2ccn(-c3ccc(S(C)(=O)=O)cc3)n2)C1=O [Example 127, (R)—N-(3-amino-4-chlorobenzo[d]isoxazol-6-yl)-2-hydroxy-2-((R)-2-methyl-4-(1-(4-(methylsulfonyl)phenyl)-1H-pyrazol-3-yl)-3-oxomorpholin-2-yl)acetamide]",0.746

# Further lines, results first:
row,IC50 [µM],SMILES
1,0.38,"C[C@]1([C@@H](O)C(=O)Nc2ccc3c(N)noc3c2)OCCN(c2cccc(-c3ccc(OC(F)(F)F)cc3)n2)C1=O [Example 109, (R)—N-(3-aminobenzo[d]isoxazol-6-yl)-2-hydroxy-2-((R)-2-methyl-3-oxo-4-(6-(4-(trifluoromethoxy)phenyl)pyridin-2-yl)morpholin-2-yl)acetamide]"
2,0.455,"C[C@]1([C@@H](O)C(=O)Nc2ccc3c(N)noc3c2)OCCN(c2cccc(-c3ccc(C(=O)O)cc3)n2)C1=O [Example 110, 4-(6-((R)-2-((R)-2-((3-aminobenzo[d]isoxazol-6-yl)amino)-1-hydroxy-2-oxoethyl)-2-methyl-3-oxomorpholino)pyridin-2-yl)benzoic acid]"
3,0.972,"C[C@]1([C@@H](O)C(=O)Nc2ccc3c(N)noc3c2)OCCN(c2cccc(-c3ccc(C(F)(F)F)cc3C(=O)O)n2)C1=O [Example 111, 2-(6-((R)-2-((R)-2-((3-aminobenzo[d]isoxazol-6-yl)amino)-1-hydroxy-2-oxoethyl)-2-methyl-3-oxomorpholino)pyridin-2-yl)-5-(trifluoromethyl)benzoic acid]"
4,0.0416,"C[C@]1([C@@H](O)C(=O)Nc2ccc3c(N)noc3c2)OCCN(c2cccc(-c3ccnnc3)n2)C1=O [Example 112, (R)—N-(3-aminobenzo[d]isoxazol-6-yl)-2-hydroxy-2-((R)-2-methyl-3-oxo-4-(6-(pyridazin-4-yl)pyridin-2-yl)morpholin-2-yl)acetamide]"
5,0.464,"C[C@]1([C@@H](O)C(=O)Nc2ccc3c(N)noc3c2)OCCN(c2cccc(-c3cnc(C(F)(F)F)nc3)n2)C1=O [Example 113, (R)—N-(3-aminobenzo[d]isoxazol-6-yl)-2-hydroxy-2-((R)-2-methyl-3-oxo-4-(6-(2-(trifluoromethyl)pyrimidin-5-yl)pyridin-2-yl)morpholin-2-yl)acetamide]"
6,0.0453,"C[C@]1([C@@H](O)C(=O)Nc2ccc3c(N)noc3c2)OCCN(c2cccc(-c3cnoc3)n2)C1=O [Example 114, (R)—N-(3-aminobenzo[d]isoxazol-6-yl)-2-hydroxy-2-((R)-4-(6-(isoxazol-4-yl)pyridin-2-yl)-2-methyl-3-oxomorpholin-2-yl)acetamide]"
7,0.0682,"Cc1nocc1-c1cccc(N2CCO[C@](C)([C@@H](O)C(=O)Nc3ccc4c(N)noc4c3)C2=O)n1 [Example 115, (R)—N-(3-aminobenzo[d]isoxazol-6-yl)-2-hydroxy-2-((R)-2-methyl-4-(6-(3-methylisoxazol-4-yl)pyridin-2-yl)-3-oxomorpholin-2-yl)acetamide]"
8,0.101,"C[C@]1([C@@H](O)C(=O)Nc2ccc3c(N)noc3c2)OCCN(c2ccc3cc(C(F)(F)F)ncc3n2)C1=O [Example 118, (R)—N-(3-aminobenzo[d]isoxazol-6-yl)-2-hydroxy-2-((R)-2-methyl-3-oxo-4-(6-(trifluoromethyl)-1,7-naphthyridin-2-yl)morpholin-2-yl)acetamide]"

# — patent US9708308B2, “Factor IXa inhibitors” (Merck Sharp & Dohme Corp., priority 2012, dated 2017)
